Source: the supplement of paper PMC10307832

Legend:
Assay in all cases: relative viability (nuclei count vs DMSO), 5 days (fraction); higher = more cells survive
[1] = compound: CC1(C)CCC(CN2CCN(c3ccc(C(=O)NS(=O)(=O)c4ccc(NCC5CCOCC5)c([N+](=O)[O-])c4)c(Oc4cnc5[nH]ccc5c4)c3)CC2)=C(c2ccc(Cl)cc2)C1 [Venetoclax] + O=C(c1cc(Cc2n[nH]c(=O)c3ccccc23)ccc1F)N1CCN(C(=O)C2CC2)CC1 [Olaparib] (partner 8 µM)
Method in brief: (§1)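 The day after seeding in 1536-well plates, lung cancer cell lines were treated by pin tool with a single drug, or with a fixed anchor-drug dose together with five library-drug doses (not always all listed) in √10 steps. After 5 days, a combined fix-and-stain solution (final 0.05% Triton X-100, 1% formaldehyde, 1 ug/ml Hoechst) was added. Nuclei counted on 4× images gave relative viability as treated counts over vehicle counts, reported as the median of duplicate plates.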

[2] = compound: CC1(C)CCC(CN2CCN(c3ccc(C(=O)NS(=O)(=O)c4ccc(NCC5CCOCC5)c([N+](=O)[O-])c4)c(Oc4cnc5[nH]ccc5c4)c3)CC2)=C(c2ccc(Cl)cc2)C1 [Venetoclax] + Cc1cc(Nc2cc(N3CCN(C)CC3)nc(Sc3ccc(NC(=O)C4CC4)cc3)n2)n[nH]1 [Tozasertib] (partner 0.1 µM)
Method in brief: as §1

[3] = compound: CC1(C)CCC(CN2CCN(c3ccc(C(=O)NS(=O)(=O)c4ccc(NCC5CCOCC5)c([N+](=O)[O-])c4)c(Oc4cnc5[nH]ccc5c4)c3)CC2)=C(c2ccc(Cl)cc2)C1 [Venetoclax] + CS(=O)(=O)CCNCc1ccc(-c2ccc3ncnc(Nc4ccc(OCc5cccc(F)c5)c(Cl)c4)c3c2)o1 [Lapatinib] (partner 2 µM)
Method in brief: as §1

[4] = compound: CC1(C)CCC(CN2CCN(c3ccc(C(=O)NS(=O)(=O)c4ccc(NCC5CCOCC5)c([N+](=O)[O-])c4)c(Oc4cnc5[nH]ccc5c4)c3)CC2)=C(c2ccc(Cl)cc2)C1 [Venetoclax] + CC(C)C[C@H](NC(=O)[C@H](Cc1ccccc1)NC(=O)c1cnccn1)B(O)O [Bortezomib] (partner 0.002 µM)
Method in brief: as §1

Row | Cell Line | relative viability ([1]; first compound 0.01 µM) | relative viability ([1]; first compound 0.03162 µM) | relative viability ([1]; first compound 0.1 µM) | relative viability ([1]; first compound 0.3162 µM) | relative viability ([1]; first compound 1 µM) | relative viability ([2]; first compound 0.01 µM) | relative viability ([2]; first compound 0.03162 µM) | relative viability ([2]; first compound 0.1 µM) | relative viability ([2]; first compound 0.3162 µM) | relative viability ([2]; first compound 1 µM) | relative viability ([3]; first compound 0.01 µM) | relative viability ([3]; first compound 0.03162 µM) | relative viability ([3]; first compound 0.1 µM) | relative viability ([3]; first compound 0.3162 µM) | relative viability ([3]; first compound 1 µM) | relative viability ([4]; first compound 0.01 µM) | relative viability ([4]; first compound 0.03162 µM) | relative viability ([4]; first compound 0.1 µM) | relative viability ([4]; first compound 0.3162 µM) | relative viability ([4]; first compound 1 µM)
1 | NCI-H522 | 0.561 | 0.611 | 0.612 | 0.621 | 0.688 | 0.605 | 0.481 | 0.599 | 0.555 | 0.437 |  |  |  |  |  |  |  |  |  | 
2 | HCC-366 | 0.4 | 0.374 | 0.372 | 0.353 | 0.311 | 0.094 | 0.119 | 0.123 | 0.0769 | 0.0514 | 1.1 | 1.01 | 0.933 | 1.04 | 0.951 | 0.854 | 1.05 | 1.01 | 0.994 | 0.984
3 | A-427 | 0.709 | 0.709 | 0.821 | 0.657 | 0.778 | 0.203 | 0.24 | 0.212 | 0.201 | 0.186 | 0.911 | 1.02 | 1.05 | 1.1 | 1.13 | 0.983 | 0.988 | 0.982 | 1.08 | 1.06
4 | NCI-H2347 | 0.578 | 0.558 | 0.514 | 0.633 | 0.537 | 0.581 | 0.634 | 0.476 | 0.597 | 0.541 | 0.948 | 0.949 | 0.983 | 0.872 | 0.922 | 0.927 | 1.5 | 1.14 | 1.03 | 1.02
5 | NCI-H1792 | 0.286 | 0.463 | 0.384 | 0.561 | 0.339 |  |  |  |  |  | 0.933 | 0.946 | 0.869 | 0.916 | 0.803 | 0.764 | 0.928 | 1.05 | 0.924 | 0.86
6 | LCLC-97TM1 | 0.242 | 0.297 | 0.37 | 0.323 | 0.365 | 0.302 | 0.27 | 0.207 | 0.185 | 0.202 |  | 1 | 0.579 | 0.868 | 0.814 |  | 0.99 | 0.609 | 1.02 | 0.403
7 | RERF-LC-KJ | 0.883 | 0.839 | 0.934 | 0.935 | 0.847 | 0.444 | 0.504 | 0.533 | 0.45 | 0.443 | 0.813 | 0.844 | 0.838 | 0.832 | 0.832 | 1.08 | 1.31 | 1.19 | 1.22 | 1.05
8 | NCI-H1993 | 1.03 | 0.952 | 0.986 | 0.99 | 1.08 | 0.588 | 0.561 | 0.614 | 0.58 | 0.607 | 0.783 | 0.861 | 0.796 | 0.733 | 0.813 | 1.05 | 1.19 | 0.988 | 1.04 | 1.02
9 | NCI-H1734 | 0.598 | 0.656 | 0.662 | 0.634 | 0.634 | 0.275 | 0.241 | 0.216 | 0.269 | 0.239 | 1.1 | 0.993 | 0.925 | 0.921 | 1.07 | 0.815 | 1.07 | 0.921 | 0.946 | 0.914
10 | HCC-44 | 1.05 | 1.01 | 0.919 | 0.971 | 0.983 | 0.747 | 0.978 | 0.894 | 0.791 | 0.715 | 0.981 | 0.979 | 0.997 | 1.08 | 0.973 | 0.85 | 0.93 | 0.948 | 0.829 | 0.904
11 | SK-MES-1 | 0.732 | 0.918 | 0.66 | 0.737 | 0.664 | 0.824 | 0.968 | 0.958 | 0.852 | 0.708 | 0.462 | 0.53 | 0.461 | 0.425 | 0.463 |  |  |  |  | 
12 | EPLC-272H | 0.63 | 0.697 | 0.803 | 0.786 | 0.83 | 0.339 | 0.391 | 0.311 | 0.452 | 0.336 |  | 0.87 | 0.89 | 1.08 | 0.921 |  | 0.957 | 0.852 | 0.872 | 0.947
13 | NCI-H838 | 0.784 | 0.758 | 0.824 | 0.776 | 0.764 | 0.254 | 0.246 | 0.303 | 0.238 | 0.239 | 0.977 | 1.07 | 0.962 | 0.978 | 0.891 | 0.949 | 0.957 | 0.73 | 0.801 | 0.797
14 | SK-LU-1 | 0.447 | 0.665 | 0.477 | 0.574 | 0.623 | 0.341 | 0.316 | 0.275 | 0.336 | 0.286 | 0.907 | 1.1 | 0.859 | 0.955 | 0.893 | 0.937 | 1.19 | 1.24 | 1.34 | 1.08
15 | NCI-H1623 |  |  |  |  |  | 0.444 | 0.506 | 0.411 | 0.411 | 0.403 |  |  |  |  |  |  |  |  |  | 
16 | Calu-6 | 0.609 | 0.619 | 0.602 | 0.554 | 0.546 |  |  |  |  |  | 1.08 | 1.13 | 0.94 | 1 | 0.97 | 0.981 | 0.972 | 1.02 | 1.08 | 1.05
17 | LCLC-103H | 0.778 | 0.846 | 0.783 | 0.787 | 0.752 | 0.575 | 0.396 | 0.36 | 0.51 | 0.454 |  |  |  |  |  | 1.02 | 1.04 | 1.16 | 1.09 | 1.1
